{
  "source": "ChEMBL document CHEMBL4376820",
  "about": "“Homodimeric Tobramycin Adjuvant Repurposes Novobiocin as an Effective Antibacterial Agent against Gram-Negative Bacteria” (J Med Chem, 2019)",
  "key": {"Klebsiella pneumoniae [1]": {"system": "Klebsiella pneumoniae", "assay": "Potentiation of novobiocin-induced antibacterial activity against Klebsiella pneumoniae 116381 clinical isolate assessed as novobiocin MIC at <= 7.1 uM incubated for 18 hrs by CLSI protocol based assay (reference value: 1024 ug/ml)", "type": "functional", "conditions": "Klebsiella pneumoniae, 116381, 18 h"}, "Acinetobacter baumannii [2]": {"system": "Acinetobacter baumannii", "assay": "Antibacterial activity against Acinetobacter baumannii 027 clinical incubated for 18 hrs by CLSI protocol based assay", "type": "functional", "conditions": "Acinetobacter baumannii, 027, 18 h"}, "Pseudomonas aeruginosa [3]": {"system": "Pseudomonas aeruginosa", "assay": "Synergistic antibacterial activity against wild type Pseudomonas aeruginosa PAO1 assessed as potentiation of moxifloxacin-induced antibacterial effect incubated for 18 hrs by checkerboard assay", "type": "functional, organism-based"}, "Pseudomonas aeruginosa [4]": {"system": "Pseudomonas aeruginosa", "assay": "Synergistic antibacterial activity against wild type Pseudomonas aeruginosa PAO1 assessed as potentiation of cefotaxime-induced antibacterial effect incubated for 18 hrs by checkerboard assay relative to cefotaxime alone", "type": "functional"}, "Pseudomonas aeruginosa [5]": {"system": "Pseudomonas aeruginosa", "assay": "Antibacterial activity against carbapenem and colistin-resistant Pseudomonas aeruginosa 91433 clinical isolate incubated for 18 hrs by CLSI protocol based assay", "type": "functional", "conditions": "Pseudomonas aeruginosa, 91433, 18 h"}, "Pseudomonas aeruginosa [6]": {"system": "Pseudomonas aeruginosa", "assay": "Synergistic antibacterial activity against wild type Pseudomonas aeruginosa PAO1 assessed as potentiation of clindamycin-induced antibacterial effect incubated for 18 hrs by checkerboard assay", "type": "functional, organism-based"}, "Pseudomonas aeruginosa [7]": {"system": "Pseudomonas aeruginosa", "assay": "Antibacterial activity against carbapenem-resistant Pseudomonas aeruginosa 101885 clinical isolate incubated for 18 hrs by CLSI protocol based assay", "type": "functional", "conditions": "Pseudomonas aeruginosa, 101885, 18 h"}, "Pseudomonas aeruginosa [8]": {"system": "Pseudomonas aeruginosa", "assay": "Synergistic antibacterial activity against wild type Pseudomonas aeruginosa PAO1 assessed as potentiation of aztreonam-induced antibacterial effect incubated for 18 hrs by checkerboard assay", "type": "functional, organism-based"}, "Pseudomonas aeruginosa [9]": {"system": "Pseudomonas aeruginosa", "assay": "Synergistic antibacterial activity against wild type Pseudomonas aeruginosa PAO1 assessed as potentiation of doxycycline-induced antibacterial effect incubated for 18 hrs by checkerboard assay relative to doxycycline alone", "type": "functional"}, "Pseudomonas aeruginosa [10]": {"system": "Pseudomonas aeruginosa", "assay": "Potentiation of novobiocin-induced antibacterial activity against carbapenem-resistant Pseudomonas aeruginosa 262-101856 clinical isolate assessed as novobiocin MIC at <= 7.1 uM incubated for 18 hrs by CLSI protocol based assay (reference value: 512 ug/ml)", "type": "functional", "conditions": "262-101856, 18 h"}, "Pseudomonas aeruginosa [11]": {"system": "Pseudomonas aeruginosa", "assay": "Potentiation of novobiocin-induced antibacterial activity against carbapenem and colistin-resistant Pseudomonas aeruginosa 91433 clinical isolate assessed as fold reduction in novobiocin MIC incubated for 18 hrs by CLSI protocol based assay relative to novobiocin MIC", "type": "functional"}, "Enterobacter cloacae": {"system": "Enterobacter cloacae", "assay": "Potentiation of novobiocin-induced antibacterial activity against colistin-resistant Enterobacter cloacae 118568 clinical solate assessed as fold reduction in novobiocin MIC incubated for 18 hrs by CLSI protocol based assay relative to novobiocin MIC", "type": "functional"}, "Acinetobacter baumannii [12]": {"system": "Acinetobacter baumannii", "assay": "Bactericidal activity against Acinetobacter baumannii ATCC 17978 assessed as log reduction in colony forming units per ml at 7.1 uM in LB media after 9 hrs in presence of 50.4 uM novobiocin by time-kill assay", "type": "functional"}, "Pseudomonas aeruginosa [13]": {"system": "Pseudomonas aeruginosa", "assay": "Potentiation of novobiocin-induced antibacterial activity against carbapenem-resistant Pseudomonas aeruginosa 259-96918 clinical isolate assessed as novobiocin MIC at <= 7.1 uM incubated for 18 hrs by CLSI protocol based assay (reference value: 512 ug/ml)", "type": "functional", "conditions": "259-96918, 18 h"}, "Pseudomonas aeruginosa [14]": {"system": "Pseudomonas aeruginosa", "assay": "Synergistic antibacterial activity against wild type Pseudomonas aeruginosa PAO1 assessed as potentiation of levofloxacin-induced antibacterial effect incubated for 18 hrs by checkerboard assay relative to levofloxacin alone", "type": "functional"}, "Pseudomonas aeruginosa [15]": {"system": "Pseudomonas aeruginosa", "assay": "Synergistic antibacterial activity against wild type Pseudomonas aeruginosa PAO1 assessed as potentiation of aztreonam-induced antibacterial effect incubated for 18 hrs by checkerboard assay relative to aztreonam alone", "type": "functional"}, "Acinetobacter baumannii [16]": {"system": "Acinetobacter baumannii", "assay": "Antibacterial activity against colistin-resistant Acinetobacter baumannii 92257 clinical isolate incubated for 18 hrs by CLSI protocol based assay", "type": "functional", "conditions": "Acinetobacter baumannii, 92257, 18 h"}, "Pseudomonas aeruginosa [17]": {"system": "Pseudomonas aeruginosa", "assay": "Synergistic antibacterial activity against wild type Pseudomonas aeruginosa PAO1 assessed as potentiation of rifampicin-induced antibacterial effect incubated for 18 hrs by checkerboard assay relative to rifampicin alone", "type": "functional"}, "Escherichia coli [18]": {"system": "Escherichia coli", "assay": "Bactericidal activity against Escherichia coli ATCC […] assessed as log reduction in colony forming units per ml at 7.1 uM in LB media after 9 hrs by time-kill assay", "type": "functional"}, "Acinetobacter baumannii [19]": {"system": "Acinetobacter baumannii", "assay": "Antibacterial activity against wild type Acinetobacter baumannii ATCC 17978 incubated for 18 hrs by CLSI protocol based assay", "type": "functional", "conditions": "ATCC 17978, 18 h"}, "Pseudomonas aeruginosa [20]": {"system": "Pseudomonas aeruginosa", "assay": "Synergistic antibacterial activity against wild type Pseudomonas aeruginosa PAO1 assessed as potentiation of novobiocin-induced antibacterial effect incubated for 18 hrs by checkerboard assay", "type": "functional, organism-based"}, "Escherichia coli [21]": {"system": "Escherichia coli", "assay": "Potentiation of novobiocin-induced antibacterial activity against wild type Escherichia coli ATCC 25922 assessed as novobiocin MIC at <= 7.1 uM incubated for 18 hrs by CLSI protocol based assay (reference value: 64 ug/ml)", "type": "functional", "conditions": "ATCC 25922, 18 h"}, "Escherichia coli [22]": {"system": "Escherichia coli", "assay": "Antibacterial activity against colistin-resistant Escherichia coli 94474 clinical isolate harboring mcr-1 gene incubated for 18 hrs by CLSI protocol based assay", "type": "functional", "conditions": "Escherichia coli, 94474, 18 h"}, "Pseudomonas aeruginosa [23]": {"system": "Pseudomonas aeruginosa", "assay": "Antibacterial activity against wild type Pseudomonas aeruginosa PAO1 assessed as fractional inhibitory concentration index incubated for 18 hrs in presence of colistin by checkerboard assay", "type": "functional"}, "Acinetobacter baumannii [24]": {"system": "Acinetobacter baumannii", "assay": "Potentiation of novobiocin-induced antibacterial activity against Acinetobacter baumannii 110193 clinical isolate assessed as novobiocin MIC at <= 7.1 uM incubated for 18 hrs by CLSI protocol based assay (reference value: 256 ug/ml)", "type": "functional", "conditions": "Acinetobacter baumannii, 110193, 18 h"}, "Acinetobacter baumannii [25]": {"system": "Acinetobacter baumannii", "assay": "Potentiation of novobiocin-induced antibacterial activity against Acinetobacter baumannii 027 clinical isolate assessed as novobiocin MIC at <= 7.1 uM incubated for 18 hrs by CLSI protocol based assay (reference value: 8 ug/ml)", "type": "functional", "conditions": "Acinetobacter baumannii, 027, 18 h"}, "Klebsiella pneumoniae [26]": {"system": "Klebsiella pneumoniae", "assay": "Potentiation of novobiocin-induced antibacterial activity against Klebsiella pneumoniae 116381 clinical isolate assessed as fold reduction in novobiocin MIC incubated for 18 hrs by CLSI protocol based assay relative to novobiocin MIC", "type": "functional"}, "Klebsiella pneumoniae [27]": {"system": "Klebsiella pneumoniae", "assay": "Potentiation of novobiocin-induced antibacterial activity against colistin-resistant Klebsiella pneumoniae 113250 clinical isolate assessed as novobiocin MIC at <= 7.1 uM incubated for 18 hrs by CLSI protocol based assay (reference value: 512 ug/ml)", "type": "functional", "conditions": "Klebsiella pneumoniae, 113250, 18 h"}, "Acinetobacter baumannii [28]": {"system": "Acinetobacter baumannii", "assay": "Bactericidal activity against Acinetobacter baumannii ATCC 17978 assessed as log reduction in colony forming units per ml at 7.1 uM in LB media after 9 hrs by time-kill assay", "type": "functional"}, "Pseudomonas aeruginosa [29]": {"system": "Pseudomonas aeruginosa", "assay": "Potentiation of novobiocin-induced antibacterial activity against carbapenem-resistant Pseudomonas aeruginosa 262-101856 clinical isolate assessed as fold reduction in novobiocin MIC incubated for 18 hrs by CLSI protocol based assay relative to novobiocin MIC", "type": "functional"}, "Escherichia coli [30]": {"system": "Escherichia coli", "assay": "Antibacterial activity against colistin-resistant Escherichia coli 94393 clinical isolate harboring mcr-1 gene incubated for 18 hrs by CLSI protocol based assay", "type": "functional", "conditions": "Escherichia coli, 94393, 18 h"}, "Pseudomonas aeruginosa [31]": {"system": "Pseudomonas aeruginosa", "assay": "Synergistic antibacterial activity against wild type Pseudomonas aeruginosa PAO1 assessed as potentiation of vancomycin-induced antibacterial effect at <=7.1 uM incubated for 18 hrs by checkerboard assay", "type": "functional, organism-based"}, "Pseudomonas aeruginosa [32]": {"system": "Pseudomonas aeruginosa", "assay": "Synergistic antibacterial activity against wild type Pseudomonas aeruginosa PAO1 assessed as potentiation of ceftazidime-induced antibacterial effect incubated for 18 hrs by checkerboard assay", "type": "functional, organism-based"}},
  "note": "Calls of active or inactive are those of the source. The calls are words filed in the database; no cut-off is given here.",
  "data": [
    {"smiles": "NC[C@H]1O[C@H](O[C@H]2[C@H](OCCCCc3cn(CCCCO[C@@H]4[C@@H](O[C@H]5O[C@H](CO)[C@@H](O)[C@H](N)[C@H]5O)[C@H](N)C[C@H](N)[C@H]4O[C@H]4O[C@H](CN)[C@@H](O)C[C@H]4N)nn3)[C@@H](O[C@H]3O[C@H](CO)[C@@H](O)[C@H](N)[C@H]3O)[C@H](N)C[C@@H]2N)[C@H](N)C[C@@H]1O.O=C(O)C(F)(F)F.O=C(O)C(F)(F)F.O=C(O)C(F)(F)F.O=C(O)C(F)(F)F.O=C(O)C(F)(F)F.O=C(O)C(F)(F)F.O=C(O)C(F)(F)F.O=C(O)C(F)(F)F.O=C(O)C(F)(F)F.O=C(O)C(F)(F)F", "values": [
      {"measurement": "MIC", "setting": "Klebsiella pneumoniae [1]", "value": 8, "unit": "µg/mL"},
      {"measurement": "MIC", "setting": "Acinetobacter baumannii [2]", "value": "> 128", "unit": "µg/mL"},
      {"measurement": "Activity", "setting": "Pseudomonas aeruginosa [3]", "value": "Dose-dependent effect"},
      {"measurement": "fold change (FC)", "setting": "Pseudomonas aeruginosa [4]", "value": "4 - 128"},
      {"measurement": "MIC", "setting": "Pseudomonas aeruginosa [5]", "value": "> 128", "unit": "µg/mL"},
      {"measurement": "Activity", "setting": "Pseudomonas aeruginosa [6]", "value": "Dose-dependent effect"},
      {"measurement": "MIC", "setting": "Pseudomonas aeruginosa [7]", "value": "> 128", "unit": "µg/mL"},
      {"measurement": "Activity", "setting": "Pseudomonas aeruginosa [8]", "value": "Dose-dependent effect"},
      {"measurement": "fold change (FC)", "setting": "Pseudomonas aeruginosa [9]", "value": "4 - 128"},
      {"measurement": "MIC", "setting": "Pseudomonas aeruginosa [10]", "value": 8, "unit": "µg/mL"},
      {"measurement": "Ratio", "setting": "Pseudomonas aeruginosa [11]", "value": 16},
      {"measurement": "Ratio", "setting": "Enterobacter cloacae", "value": 32},
      {"measurement": "Activity", "setting": "Acinetobacter baumannii [12]", "value": -5, "unit": "CFU/ml"},
      {"measurement": "MIC", "setting": "Pseudomonas aeruginosa [13]", "value": 8, "unit": "µg/mL"},
      {"measurement": "fold change (FC)", "setting": "Pseudomonas aeruginosa [14]", "value": "4 - 128"},
      {"measurement": "fold change (FC)", "setting": "Pseudomonas aeruginosa [15]", "value": "4 - 128"},
      {"measurement": "MIC", "setting": "Acinetobacter baumannii [16]", "value": "> 128", "unit": "µg/mL"},
      {"measurement": "fold change (FC)", "setting": "Pseudomonas aeruginosa [17]", "value": "4 - 128"},
      {"measurement": "Activity", "setting": "Escherichia coli [18]", "value": -2, "unit": "CFU/ml"},
      {"measurement": "MIC", "setting": "Acinetobacter baumannii [19]", "value": "> 128", "unit": "µg/mL"},
      {"measurement": "Activity", "setting": "Pseudomonas aeruginosa [20]", "value": "Dose-dependent effect"},
      {"measurement": "MIC", "setting": "Escherichia coli [21]", "value": 2, "unit": "µg/mL"},
      {"measurement": "MIC", "setting": "Escherichia coli [22]", "value": "> 128", "unit": "µg/mL"},
      {"measurement": "fractional inhibitory concentration index (FICI)", "setting": "Pseudomonas aeruginosa [23]", "value": ">4"},
      {"measurement": "MIC", "setting": "Acinetobacter baumannii [24]", "value": 1, "unit": "µg/mL"},
      {"measurement": "MIC", "setting": "Acinetobacter baumannii [25]", "value": 0.5, "unit": "µg/mL"},
      {"measurement": "Ratio", "setting": "Klebsiella pneumoniae [26]", "value": 128},
      {"measurement": "MIC", "setting": "Klebsiella pneumoniae [27]", "value": 16, "unit": "µg/mL"},
      {"measurement": "Activity", "setting": "Acinetobacter baumannii [28]", "value": -3, "unit": "CFU/ml"},
      {"measurement": "Ratio", "setting": "Pseudomonas aeruginosa [29]", "value": 64},
      {"measurement": "MIC", "setting": "Escherichia coli [30]", "value": "> 128", "unit": "µg/mL"},
      {"measurement": "Activity", "setting": "Pseudomonas aeruginosa [31]", "value": "inactive"},
      {"measurement": "Activity", "setting": "Pseudomonas aeruginosa [32]", "value": "Dose-dependent effect"}
    ]}
  ]
}
